Reference: US20220362249A1, “METHODS FOR TREATING […]” (PTC Therapeutics MP, Inc., priority 2019, published 2022)
Like-named read-outs stand apart in the source and are kept apart here.

Tests used:
Assay type in all cases: in vivo, human
[1] = Food effect on administration of sepiapterin: plasma sepiapterin and BH4 concentrations, fasted vs fed; details: sepiapterin 10 mg/kg oral; for concentration at 0 h / concentration at 0.5 h / concentration at 1 h / concentration at 2 h / concentration at 4 h / concentration at 8 h / concentration at 12 h / concentration at 24 h: human, oral, 10 mg/kg; for concentration at 0 h: 0 h (predose)
Procedure: Method: Subjects received 2 oral doses of sepiapterin (10 mg/kg) separated by 1 week in a fasted and fed state. Subjects were fed a standard high-fat (approximately 50 percent of total caloric content of the meal) and high-calorie (approximately 800 to 1000 calories) meal starting 30 minutes prior to receiving their second oral dose of sepiapterin on Day 8.
Sampling for PK analysis occurred predose on Days 1 and 8 (within 30 minutes before dosing) and 0.5 hr, 1 hr, 2 hr, 4 hr, 8 hr, 12 hr, and 24 hr after the doses on Days 1 and 8. The blood concentrations of sepiapterin and BH4 were analyzed by MNG Labs.

[2] = Comparison of adverse events in fed and fasted subjects; details: single dose 10 mg/kg, twelve subjects
Procedure: Method: Twelve subjects were given a single dose (10 mg/kg) of sepiapterin under fasting conditions and then 7 days later under fed conditions. Standard definitions of adverse events (AE) were used. All-cause AE were those that occurred at any time; treatment-emergent adverse events (TEAE) were those that occurred at or after the time of administration of study treatment. TEAEs related to study drug were based on the opinion of the investigator. Serious AE were defined as life threatening or caused death, hospitalization or prolongation of existing hospitalization, or were a persistent or significant disability/incapacity or a substantial disruption of the ability to conduct normal life functions, or a congenital anomaly/birth defect.

[3] = Pharmacokinetic analysis of multiple doses of sepiapterin (once daily for 7 days, fed subjects)
From the text: Methods: Three cohorts of eight fed subjects each were randomized to receive once-daily sepiapterin or placebo for 7 days in a 6:2 ratio. A sentinel dose strategy was also used for administration of the highest sepiapterin dose.

[4] = Adverse events in patients with PKU on PTC923 or sapropterin dihydrochloride; details: for Headache (all-cause AE): transient
From the text: PTC923 safety was monitored and adverse events (AEs) were coded using the Medical Dictionary for Regulatory Activities (MedDRA®) version 21.0. Treatment-emergent adverse events (TEAEs) were defined as AE that began on or after first dose of study drug. A TEAE was associated with the study treatment currently being received, or the last study treatment before its onset. A treatment-related TEAE was, in the judgment of the investigator possibly, probably or definitely related to treatment. A serious AE (SAE) was defined as resulting in death, life-threatening AE, inpatient hospitalization or prolongation of existing hospitalization, a persistent or significant disability/incapacity or a substantial disruption of the ability to conduct normal life functions, or a congenital anomaly/birth defect.

[5] = plasma, fasted, read-out: Concentration in Plasma, Maximum
[6] = plasma, fasted, read-out: Concentration in Plasma, Mean
[7] = plasma, fasted, read-out: Concentration in Plasma, Median
[8] = plasma, fasted, read-out: Concentration in Plasma, Minimum
[9] = plasma, fed (high-fat meal), read-out: Concentration in Plasma, Maximum
[10] = plasma, fed (high-fat meal), read-out: Concentration in Plasma, Mean
[11] = plasma, fed (high-fat meal), read-out: Concentration in Plasma, Median
[12] = plasma, fed (high-fat meal), read-out: Concentration in Plasma, Minimum

C[C@H](O)C(=O)C1=Nc2c(nc(N)[nH]c2=O)NC1 [sepiapterin, Sepiapterin] gave a concentration at 0 h [1, 5] of 0 nM, a concentration at 0 h [1, 6] of 0 nM and a concentration at 0 h [1, 7] of 0 nM. It also gave a concentration at 0 h [1, 8] of 0 nM, a concentration at 0.5 h [1, 5] of 7.23 nM and a concentration at 0.5 h [1, 6] of 2.85 nM. The concentration at 0.5 h [1, 7] was 2.32 nM, the concentration at 0.5 h [1, 8] was 0 nM and the concentration at 1 h [1, 5] was 10.2 nM. For the same compound, the concentration at 1 h [1, 6] was 5.43 nM, the concentration at 1 h [1, 7] was 4.82 nM and the concentration at 1 h [1, 8] was 3.15 nM. The concentration at 2 h [1, 5] was 6.65 nM, the concentration at 2 h [1, 6] was 4.63 nM and the concentration at 2 h [1, 7] was 4.71 nM. For the same compound, the concentration at 2 h [1, 8] was 2.52 nM, the concentration at 4 h [1, 5] was 3.93 nM and the concentration at 4 h [1, 6] was 1.88 nM. The concentration at 4 h [1, 7] was 2.37 nM, the concentration at 4 h [1, 8] was 0 nM and the concentration at 8 h [1, 5] was 0 nM. The concentration at 8 h [1, 6] was 0 nM, the concentration at 8 h [1, 7] was 0 nM and the concentration at 8 h [1, 8] was 0 nM. The concentration at 12 h [1, 5] was 0 nM, the concentration at 12 h [1, 6] was 0 nM and the concentration at 12 h [1, 7] was 0 nM. The concentration at 12 h [1, 8] was 0 nM, the concentration at 24 h [1, 5] was 0 nM and the concentration at 24 h [1, 6] was 0 nM. The concentration at 24 h [1, 7] was 0 nM, the concentration at 24 h [1, 8] was 0 nM and the concentration at 0 h [1, 9] was 0 nM. The concentration at 0 h [1, 10] was 0 nM, the concentration at 0 h [1, 11] was 0 nM and the concentration at 0 h [1, 12] was 0 nM. It also gave a concentration at 0.5 h [1, 9] of 3.22 nM, a concentration at 0.5 h [1, 10] of 0.63 nM and a concentration at 0.5 h [1, 11] of 0 nM. For the same compound, the concentration at 0.5 h [1, 12] was 0 nM, the concentration at 1 h [1, 9] was 4.57 nM and the concentration at 1 h [1, 10] was 2.38 nM. For the same compound, the concentration at 1 h [1, 11] was 2.42 nM, the concentration at 1 h [1, 12] was 0 nM and the concentration at 2 h [1, 9] was 5.92 nM. The concentration at 2 h [1, 10] was 2.96 nM, the concentration at 2 h [1, 11] was 2.91 nM and the concentration at 2 h [1, 12] was 0 nM. The concentration at 4 h [1, 9] was 5.56 nM, the concentration at 4 h [1, 10] was 2.96 nM and the concentration at 4 h [1, 11] was 2.5 nM. The concentration at 4 h [1, 12] was 0 nM, the concentration at 8 h [1, 9] was 2.19 nM and the concentration at 8 h [1, 10] was 0.18 nM. For the same compound, the concentration at 8 h [1, 11] was 0 nM, the concentration at 8 h [1, 12] was 0 nM and the concentration at 12 h [1, 9] was 0 nM. The concentration at 12 h [1, 10] was 0 nM, the concentration at 12 h [1, 11] was 0 nM and the concentration at 12 h [1, 12] was 0 nM. The concentration at 24 h [1, 9] was 0 nM, the concentration at 24 h [1, 10] was 0 nM and the concentration at 24 h [1, 11] was 0 nM. The concentration at 24 h [1, 12] was 0 nM, the “Geometric mean ratio (fasted/fed, 90% CI) for AUClast” value ([1]; plasma) was 1.29 (0.84 to 2.00) and the “Geometric mean ratio (fasted/fed, 90% CI) for Cmax” value ([1]; plasma) was 1.57 (1.21 to 2.0). For the same compound, the “Cmax in the plasma, fed compared to fasted subjects (in words)” value [1] was “much lower”, the TEAE ([2]; Fasted) was 4 and the “TEAE related to study drug” value ([2]; Fasted) was 1. The “≥1 AE” value ([2]; Fasted) was 5, the TEAE ([2]; Fed) was 1 and the “TEAE related to study drug” value ([2]; Fed) was 0. The “≥1 AE” value ([2]; Fed) was 1, the Cmax ([3]; Day 1, sepiapterin 20 mg/kg once daily, fed) was 1.2 ng/mL and the AUC0-24 ([3]; Day 7, sepiapterin 60 mg/kg once daily, fed) was 23 ng·h/mL. The “Drug accumulation after 1 and 7 days of treatment (in words)” value ([3]; once-daily sepiapterin for 7 days) was “no drug accumulation”, the “Patients reporting any adverse event” value ([4]; 20 mg/kg) was 25% and the “Patients reporting severe AE” value ([4]; 20 mg/kg) was 4%. The “Patients reporting treatment-related AE” value ([4]; 20 mg/kg) was 0%, the “Headache (all-cause AE)” value ([4]; 20 mg/kg) was 4% and the “Patients reporting any adverse event” value ([4]; 60 mg/kg) was 29%. The “Patients reporting severe AE” value ([4]; 60 mg/kg) was 0%, the “Patients reporting treatment-related AE” value ([4]; 60 mg/kg) was 13% and the “Headache (all-cause AE)” value ([4]; 60 mg/kg) was 17%.
